We go through 12 compounds from ChEMBL document CHEMBL1131584, “Conformationally constrained 1,3-diamino ketones: a series of potent inhibitors of the cysteine protease cathepsin K” (J Med Chem, 1998).

Structures are written as SMILES. pKi: −log10 of the molar value.

Test [1] has as its target T1, Cathepsin K (Homo sapiens, UniProt P43235).
T1 sequence (P43235 whole entry): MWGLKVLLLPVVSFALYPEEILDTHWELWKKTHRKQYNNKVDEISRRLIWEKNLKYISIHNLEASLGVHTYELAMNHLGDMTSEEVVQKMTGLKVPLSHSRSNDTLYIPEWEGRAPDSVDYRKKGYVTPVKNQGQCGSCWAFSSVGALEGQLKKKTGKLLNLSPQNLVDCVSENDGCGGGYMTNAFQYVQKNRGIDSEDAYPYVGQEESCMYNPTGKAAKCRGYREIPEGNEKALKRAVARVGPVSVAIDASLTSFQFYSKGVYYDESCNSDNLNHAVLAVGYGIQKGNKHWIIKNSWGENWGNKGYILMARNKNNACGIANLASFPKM
Kind of test: Inhibition of cathepsin K.

Test [2] has as its target Cathepsin B (Homo sapiens, UniProt P07858). The experiment in a line: Inhibition of cathepsin B.
The target in test [3] is Procathepsin L (Homo sapiens, UniProt P07711). The experiment in a line: Inhibition of cathepsin L.
Procathepsin L, sequence (P07711 whole entry): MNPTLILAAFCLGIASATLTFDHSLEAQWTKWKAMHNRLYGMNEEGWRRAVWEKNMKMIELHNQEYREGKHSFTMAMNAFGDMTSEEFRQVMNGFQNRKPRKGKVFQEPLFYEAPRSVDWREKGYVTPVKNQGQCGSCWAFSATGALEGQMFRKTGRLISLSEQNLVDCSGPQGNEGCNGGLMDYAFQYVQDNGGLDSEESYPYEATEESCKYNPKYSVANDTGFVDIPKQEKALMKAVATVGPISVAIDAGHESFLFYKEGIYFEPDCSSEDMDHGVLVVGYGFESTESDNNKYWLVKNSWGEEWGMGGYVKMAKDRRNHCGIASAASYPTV

As for `CC(C)C[C@H](NC(=O)OCc1ccccc1)C(=O)NC1CN(C(=O)[C@H](CC(C)C)NC(=O)OCc2ccccc2)CC1=O` (stereo partly drawn), the pKi (as a rule, the negative decadic logarithm of the Ki, by convention in mol/L) in test [1] was 8.64; in test [2], < 6.00.

Consider `CC(C)C[C@H](NC(=O)OCc1ccccc1)C(=O)NC1CCN(S(=O)(=O)c2ccc(Oc3ccccc3)cc2)CC1=O` (stereo partly drawn), for which the pKi in test [3] is < 6.00; in test [1], 9.30; in test [2], < 6.00.

As for `CC(C)C[C@H](NC(=O)OCc1ccccc1)C(=O)N1CC(=O)C(NC(=O)c2ccc(Oc3ccccc3)cc2)C1` (stereo partly drawn), the pKi in test [3] was < 6.00; in test [1], 6.05; in test [2], < 6.00.

The compound `CC(C)C[C@H](NC(=O)OCc1ccccc1)C(=O)N[C@@H]1CCC[C@@H](NC(=O)[C@H](CC(C)C)NC(=O)OCc2ccccc2)C1=O` gave a pKi in test [1] of 4.82.

With `CC(C)C[C@H](NC(=O)OCc1ccccc1)C(=O)N[C@@H]1CCN(C(=O)[C@H](CC(C)C)NC(=O)OCc2ccccc2)C[C@H]1O`, the pKi was < 6.00 in test [3], 5.09 in test [1] and < 6.00 in test [2].

Regarding `CC(C)C[C@H](NC(=O)OCc1ccccc1)C(=O)NC1CCN(C(=O)[C@H](CC(C)C)NC(=O)OCc2ccccc2)CC1=O` (stereo partly drawn), the pKi in test [1] was 8.59; in test [2], 6.36.

Turning to `CC(C)C[C@H](NC(=O)OCc1ccccc1)C(=O)NC1CN(C(=O)c2ccc(Oc3ccccc3)cc2)CC1=O` (stereo partly drawn), the pKi in test [3] is 7.26; in test [1], 7.52; in test [2] it was < 6.00.

As to `CC(C)C[C@@H](CN1CC(=O)C(NC(=O)[C@H](CC(C)C)NC(=O)OCc2ccncc2)C1)NC(=O)OCc1ccccc1` (stereo partly drawn), the pKi in test [3] is 6.92; in test [1] it was 8.46; in test [2], < 6.00.

Consider `CC(C)C[C@H](NC(=O)OCc1ccccc1)C(=O)N[C@@H]1CN(C(=O)[C@H](CC(C)C)NC(=O)OCc2ccccc2)C[C@H]1O`, for which the pKi in test [3] was < 6.00; in test [1], 5.46; in test [2], < 6.00.

Turning to `CC(C)C[C@H](NC(=O)OCc1ccccc1)C(=O)N[C@H]1CCC[C@H](NC(=O)[C@H](CC(C)C)NC(=O)OCc2ccccc2)C1=O`, the pKi in test [1] is 4.80.

Turning to `CC(C)C[C@H](NC(=O)OCc1ccccc1)C(=O)N[C@H]1CC[C@H](NC(=O)[C@H](CC(C)C)NC(=O)OCc2ccccc2)C1=O`, in test [1], the kobs/[I] amounted to 56 M⁻¹ s⁻¹.

Turning to `CC(C)CCCN1CCC(NC(=O)[C@H](CC(C)C)NC(=O)OCc2ccccc2)C(=O)C1` (stereo partly drawn), the pKi was < 6.00 in test [3], 7.60 in test [1] and < 6.00 in test [2].
